In test [1] the test system is N87 (gastric cancer) cells. As to the kind of experiment: In vitro cell assay (MTS cell viability), N87. Particulars: 96 h, free compounds (natural products and synthetic analogs); cell viability 96 hours after treatment. Type of test: cell-based. The method, then:
(§1) Target expressing (BT474 (breast cancer), N87 (gastric cancer), HCC1954 (breast cancer), MDA-MB-361-DYT2 (breast cancer)) or non-expressing (MDA-MB-468) cells were seeded in 96-well cell culture plates for 24 hours before treatment. Cells were treated with 3-fold serially diluted antibody-drug conjugates or free compounds (i.e., no antibody conjugated to the drug) in duplicate at 10 concentrations. Cell viability was determined by CellTiter 96® AQueous One Solution Cell Proliferation MTS Assay (Promega, Madison Wis.) 96 hours after treatment. Relative cell viability was determined as percentage of untreated control. IC50 values were calculated using a four parameter logistic model #203 with XLfit v4.2 (IDBS, Guildford, Surry, UK). The potency ranged upward from 0.0002 nm. Similar procedures and techniques were employed.

In test [2] the test system is MDA-MB-361-DYT2 (breast cancer) cells. As to the kind of experiment: In vitro cell assay (MTS cell viability), MDA-MB-361-DYT2. Type of test: cell-based. Particulars: 96 h, free compounds (natural products and synthetic analogs); cell viability 96 hours after treatment. The method, then: as §1

This passage reports IC50 results from patent publication US9504669B2, “Spliceostatin analogs and methods for their preparation” (PFIZER INC., priority 2012, dated 2016).

Bounds are passed on as bounds.

Broadly, the IC50 is the point on the concentration scale where inhibition reaches its midpoint. Read a low IC50 as greater potency in that assay.

As to `CC(=O)O[C@@H](C)/C=C\C(=O)N[C@@H]1C[C@H](C)[C@H](C/C=C(C)/C=C/[C@H]2O[C@H](CC(=O)N[C@H]3C[C@@H](O)C3)C[C@@]3(CO3)[C@@H]2O)O[C@@H]1C` [#B142, (2S,3Z)-5-{[(2R,3R,5S,6S)-6-{(2E,4E)-5-[(3R,4R,5R,7S)-4-hydroxy-7-{2-[(cis-3-hydroxycyclobutyl)amino]-2-oxoethyl}-1,6-dioxaspiro[2.5]oct-5-yl]-3-methylpenta-2,4-dien-1-yl}-2,5-dimethyltetrahydro-2H-pyran-3-yl]amino}-5-oxopent-3-en-2-yl acetate], the results for the IC50 in test [1] and in test [2] were 11.2 nM and 55.5 nM, respectively.

On to `CNNC(=O)C[C@@H]1C[C@@]2(CO2)[C@H](O)[C@@H](/C=C/C(C)=C/C[C@@H]2O[C@H](C)[C@H](NC(=O)/C=C\[C@H](C)OC(C)=O)C[C@@H]2C)O1` [#B143, (2S,3Z)-5-({(2R,3R,5S,6S)-6-[(2E,4E)-5-{(3R,4R,5R,7S)-4-hydroxy-7-[2-(2-methylhydrazinyl)-2-oxoethyl]-1,6-dioxaspiro[2.5]oct-5-yl}-3-methylpenta-2,4-dien-1-yl]-2,5-dimethyltetrahydro-2H-pyran-3-yl}amino)-5-oxopent-3-en-2-yl acetate], for which the values for the IC50 in test [1] and in test [2] were 2.43 nM and 9.51 nM, respectively.

In the case of `CC(=O)O[C@@H](C)/C=C\C(=O)N[C@@H]1C[C@H](C)[C@H](C/C=C(C)/C=C/[C@H]2O[C@H](CC(=O)N(C)N)C[C@@]3(CO3)[C@@H]2O)O[C@@H]1C` [#B144, (2S,3Z)-5-({(2R,3R,5S,6S)-6-[(2E,4E)-5-{(3R,4R,5R,7S)-4-hydroxy-7-[2-(1-methylhydrazinyl)-2-oxoethyl]-1,6-dioxaspiro[2.5]oct-5-yl}-3-methylpenta-2,4-dien-1-yl]-2,5-dimethyltetrahydro-2H-pyran-3-yl}amino)-5-oxopent-3-en-2-yl acetate], the IC50 was 0.982 nM in test [1] and 6.1 nM in test [2].

Regarding `CNN(C)C(=O)C[C@@H]1C[C@@]2(CO2)[C@H](O)[C@@H](/C=C/C(C)=C/C[C@@H]2O[C@H](C)[C@H](NC(=O)/C=C\[C@H](C)OC(C)=O)C[C@@H]2C)O1` [#B145, (2S,3Z)-5-({(2R,3R,5S,6S)-6-[(2E,4E)-5-{(3R,4R,5R,7S)-7-[2-(1,2-dimethylhydrazinyl)-2-oxoethyl]-4-hydroxy-1,6-dioxaspiro[2.5]oct-5-yl}-3-methylpenta-2,4-dien-1-yl]-2,5-dimethyltetrahydro-2H-pyran-3-yl}amino)-5-oxopent-3-en-2-yl acetate], the results for the IC50 in test [1] and in test [2] were 0.408 nM and 2.03 nM, respectively.

For the molecule `COC(=O)C[C@@H]1C[C@@]2(CO2)C[C@@H](/C=C/C(C)=C/C[C@@H]2O[C@H](C)[C@H](NC(=O)/C=C\[C@H](C)OC(=O)CCCSC)C[C@@H]2C)O1` [#B149, (2S,3Z)-5-{[(2R,3R,5S,6S)-6-{(2E,4E)-5-[(3S,5S,7S)-7-(2-methoxy-2-oxoethyl)-1,6-dioxaspiro[2.5]oct-5-yl]-3-methylpenta-2,4-dien-1-yl}-2,5-dimethyltetrahydro-2H-pyran-3-yl]amino}-5-oxopent-3-en-2-yl 4-(methylsulfanyl)butanoate], the IC50 in test [1] and in test [2] was more than 100 nM in each case.

For `CC(=O)O[C@@H](C)/C=C\C(=O)N[C@@H]1C[C@H](C)[C@H](C/C=C(C)/C=C/[C@H]2O[C@H](CC(=O)NN(C)C)C[C@@]3(CO3)[C@@H]2O)O[C@@H]1C` [#B177, (2S,3Z)-5-({(2R,3R,5S,6S)-6-[(2E,4E)-5-{(3R,4R,5R,7S)-7-[2-(2,2-dimethylhydrazinyl)-2-oxoethyl]-4-hydroxy-1,6-dioxaspiro[2.5]oct-5-yl}-3-methylpenta-2,4-dien-1-yl]-2,5-dimethyltetrahydro-2H-pyran-3-yl}amino)-5-oxopent-3-en-2-yl acetate], the IC50 in test [1] was 1.61 nM; in test [2] it was 5.65 nM.

Consider `CC(=O)O[C@@H](C)/C=C\C(=O)N[C@@H]1C[C@H](C)[C@H](C/C=C(C)/C=C/[C@H]2O[C@H](CC(=O)N3CCCCN3)C[C@@]3(CO3)[C@@H]2O)O[C@@H]1C` [#B179, (2S,3Z)-5-({(2R,3R,5S,6S)-6-[(2E,4E)-5-{(3R,4R,5R,7S)-4-hydroxy-7-[2-oxo-2-(tetrahydropyridazin-1(2H)-yl)ethyl]-1,6-dioxaspiro[2.5]oct-5-yl}-3-methylpenta-2,4-dien-1-yl]-2,5-dimethyltetrahydro-2H-pyran-3-yl}amino)-5-oxopent-3-en-2-yl acetate], for which the IC50 came out at 0.299 nM in test [1] and 1.29 nM in test [2].

For the molecule `CC(/C=C/[C@H]1O[C@H](CC(=O)NN)C[C@@]2(CO2)[C@@H]1O)=C\C[C@@H]1O[C@H](C)[C@H](NC(=O)/C=C\[C@H](C)O)C[C@@H]1C` [#B209, (2Z,4S)—N-[(2R,3R,5S,6S)-6-{(2E,4E)-5-[(3R,4R,5R,7S)-7-(2-hydrazinyl-2-oxoethyl)-4-hydroxy-1,6-dioxaspiro[2.5]oct-5-yl]-3-methylpenta-2,4-dien-1-yl}-2,5-dimethyltetrahydro-2H-pyran-3-yl]-4-hydroxypent-2-enamide], the IC50 is 60.6 nM in test [1] and more than 100 nM in test [2].

As to `COC(=O)C[C@@H]1C[C@@]2(CO2)[C@H](O)[C@@H](/C=C/C(C)=C/C[C@@H]2O[C@H](C)[C@H](NC(=O)/C=C\[C@H](C)OC)C[C@@H]2C)O1` [#B229, methyl [(3R,5S,7R,8R)-8-hydroxy-7-{(1E,3E)-5-[(2S,3S,5R,6R)-5-{[(2Z,4S)-4-methoxypent-2-enoyl]amino}-3,6-dimethyltetrahydro-2H-pyran-2-yl]-3-methylpenta-1,3-dien-1-yl}-1,6-dioxaspiro[2.5]oct-5-yl]acetate], the IC50 is 3.6 nM in test [1] and 9.14 nM in test [2].

Regarding `COC(=O)C[C@@H]1C[C@@]2(CO2)[C@H](O)[C@@H](/C=C/C(C)=C/C[C@@H]2O[C@H](C)[C@H](NC(=O)/C=C\[C@H](C)O)C[C@@H]2C)O1` [#B235, methyl [(3R,5S,7R,8R)-8-hydroxy-7-{(1E,3E)-5-[(2S,3S,5R,6R)-5-{[(2Z,4S)-4-hydroxypent-2-enoyl]amino}-3,6-dimethyltetrahydro-2H-pyran-2-yl]-3-methylpenta-1,3-dien-1-yl}-1,6-dioxaspiro[2.5]oct-5-yl]acetate], the figures for the IC50 in test [1] and in test [2] were 16.4 nM and 36.8 nM, respectively.

As to `COC(=O)C[C@@H]1C[C@@]2(CO2)[C@H](OC)[C@@H](/C=C/C(C)=C/C[C@@H]2O[C@H](C)[C@H](NC(=O)/C=C\[C@H](C)OC)C[C@@H]2C)O1` [#B240, methyl [(3R,5S,7R,8R)-8-methoxy-7-{(1E,3E)-5-[(2S,3S,5R,6R)-5-{[(2Z,4S)-4-methoxypent-2-enoyl]amino}-3,6-dimethyltetrahydro-2H-pyran-2-yl]-3-methylpenta-1,3-dien-1-yl}-1,6-dioxaspiro[2.5]oct-5-yl]acetate], the figures for the IC50 in test [1] and in test [2] were 9.79 nM and 5.05 nM, respectively.

Take `CC(=O)O[C@@H](C)/C=C\C(=O)N[C@@H]1C[C@H](C)[C@H](C/C=C(C)/C=C/[C@H]2O[C@H](CNC(N)=O)C[C@@]3(CO3)[C@@H]2O)O[C@@H]1C` [#B241, (2S,3Z)-5-({(2R,3R,5S,6S)-6-[(2E,4E)-5-{(3R,4R,5R,7S)-7-[(carbamoylamino)methyl]-4-hydroxy-1,6-dioxaspiro[2.5]oct-5-yl}-3-methylpenta-2,4-dien-1-yl]-2,5-dimethyltetrahydro-2H-pyran-3-yl}amino)-5-oxopent-3-en-2-yl acetate]: the figures for the IC50 in test [1] and in test [2] were 21.3 nM and 43.6 nM, respectively.
